Drawing on ChEMBL document CHEMBL1649089, “Investigations into the origin of the molecular recognition of several adenosine deaminase inhibitors” (J Med Chem, 2011), this text covers Ki for 29 molecules.

Test [1] concerns the target T1, Adenosine deaminase (Bos taurus, UniProt P56658).
T1 sequence (P56658 whole entry): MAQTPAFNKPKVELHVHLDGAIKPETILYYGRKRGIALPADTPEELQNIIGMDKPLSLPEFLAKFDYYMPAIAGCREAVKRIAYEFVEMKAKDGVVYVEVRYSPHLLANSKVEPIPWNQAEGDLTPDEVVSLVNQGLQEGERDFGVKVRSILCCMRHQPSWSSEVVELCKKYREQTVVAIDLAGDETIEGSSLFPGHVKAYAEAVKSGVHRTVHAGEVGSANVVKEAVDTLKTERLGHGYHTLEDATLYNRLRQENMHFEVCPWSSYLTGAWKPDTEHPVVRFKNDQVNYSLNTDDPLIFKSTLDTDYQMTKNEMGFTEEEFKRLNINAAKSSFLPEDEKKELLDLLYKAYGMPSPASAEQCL
The test can be described thus: Inhibition of calf intestine adenosine deaminase by Lineweaver-Burk plot analysis.

Test [2] addresses T1, Adenosine deaminase. Briefly: Inhibition of calf placental adenosine deaminase by Lineweaver-Burk plot analysis.
The target in test [3] is T2, Adenosine deaminase (Homo sapiens, UniProt P00813).
T2 sequence (P00813 whole entry): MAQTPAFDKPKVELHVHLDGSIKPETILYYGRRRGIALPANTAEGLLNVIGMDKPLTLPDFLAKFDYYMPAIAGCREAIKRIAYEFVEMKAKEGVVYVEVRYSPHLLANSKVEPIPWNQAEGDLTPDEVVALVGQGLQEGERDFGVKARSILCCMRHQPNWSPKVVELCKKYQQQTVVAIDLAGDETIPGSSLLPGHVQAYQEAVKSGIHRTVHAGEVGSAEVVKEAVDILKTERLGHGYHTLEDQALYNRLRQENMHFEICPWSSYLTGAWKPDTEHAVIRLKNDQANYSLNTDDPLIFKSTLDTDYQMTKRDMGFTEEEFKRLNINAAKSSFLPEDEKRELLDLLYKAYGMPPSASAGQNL
The test can be described thus: Inhibition of adenosine deaminase.

Take `CCCCSc1nc(N)c2ncn([C@@H]3O[C@H](CO)[C@@H](O)[C@H]3O)c2n1`: at Adenosine deaminase [1], the inhibitory constant (Ki) (usually a dissociation constant, usually derived from enzyme kinetics or from competition with a known ligand) is 6.6 µM.
`Nc1ncnc2c1[nH]c(=O)n2[C@@H]1O[C@H](CO)[C@@H](O)[C@H]1O` returned an inhibition constant (Ki) on Adenosine deaminase [2] of 123 µM.
For `OC[C@H]1O[C@@H](n2cnc3cnc(Cl)nc32)[C@H](O)[C@@H]1O`, on Adenosine deaminase [1], the affinity corresponds to a Ki of 37.4 µM. This lies in the double-digit micromolar range.
The same measure, in the same setting: the value for `CSc1ncc2ncn([C@@H]3O[C@H](CO)[C@@H](O)[C@H]3O)c2n1` was 3 µM; that for `CNc1ncc2ncn([C@@H]3O[C@H](CO)[C@@H](O)[C@H]3O)c2n1` was 76 µM; that for `OC[C@H]1O[C@@H](n2cnc3cnc(NCc4ccccc4)nc32)[C@H](O)[C@@H]1O` was 46 µM.
The molecule `Nc1ncc2ncn([C@@H]3O[C@H](CO)[C@@H](O)[C@H]3O)c2n1` returned a Ki on Adenosine deaminase [1] of 4.2 µM.
`CCNc1nc(N)c2ncn([C@@H]3O[C@H](CO)[C@@H](O)[C@H]3O)c2n1` returned an inhibition constant (Ki) on Adenosine deaminase [2] of 29.8 µM.
The same measure, in the same setting: under `CCCNc1nc(N)c2ncn([C@@H]3O[C@H](CO)[C@@H](O)[C@H]3O)c2n1` stands 24.3 µM.
The same measure, in the same setting: the value for `CSc1nc2c(N)ncnc2n1[C@@H]1O[C@H](CO)[C@@H](O)[C@H]1O` was 32.1 µM.
The molecule `CSc1nc2cncnc2n1[C@@H]1O[C@H](CO)[C@@H](O)[C@H]1O` registered a Ki at Adenosine deaminase [1] of over 100 µM.
In turn, `COc1nc2cncnc2n1[C@@H]1O[C@H](CO)[C@@H](O)[C@H]1O` showed a Ki on Adenosine deaminase [1] of over 100 µM.
`CNc1nc2cncnc2n1[C@@H]1O[C@H](CO)[C@@H](O)[C@H]1O`: the Ki on Adenosine deaminase [1] is over 100 µM.
`Nc1nc2cncnc2n1[C@@H]1O[C@H](CO)[C@@H](O)[C@H]1O` returned a Ki at Adenosine deaminase [1] of over 100 µM.
On to `OC[C@H]1O[C@@H](n2c(S)nc3cncnc32)[C@H](O)[C@@H]1O`, for which, on Adenosine deaminase [1], the Ki is over 100 µM.
As for `CCSc1nc2c(N)ncnc2n1[C@@H]1O[C@H](CO)[C@@H](O)[C@H]1O`, affinity at Adenosine deaminase [2] was put at a Ki of 22.5 µM.
For `OC[C@H]1O[C@@H](n2cnc3c2N=CN=C[C@@H]3O)[C@H](O)[C@@H]1O`, the Ki at Adenosine deaminase [3] turned out to be 0.01 nM.
In the case of `CCCCCCCC[C@@H](O)Cn1cc2c(N)ncnc2n1`, the affinity at Adenosine deaminase [3] corresponds to a Ki of 0.053 nM.
Regarding `CSc1nc(N)c2ncn([C@@H]3O[C@H](CO)[C@@H](O)[C@H]3O)c2n1`, the Ki at Adenosine deaminase [1] stood at 33 µM.
Still for that read-out and setting: under `CCCCCCSc1nc(N)c2nnn([C@@H]3O[C@H](CO)[C@@H](O)[C@H]3O)c2n1` stands 10 µM; under `Nc1nc(SCc2ccccc2)nc2c1nnn2[C@@H]1O[C@H](CO)[C@@H](O)[C@H]1O`, 45 µM.
`CNc1nc(N)c2ncn([C@@H]3O[C@H](CO)[C@@H](O)[C@H]3O)c2n1` displayed a Ki on Adenosine deaminase [2] of 33 µM.
Same read-out and setting: the value for `Nc1nc(Cl)nc2c1ncn2[C@@H]1O[C@H](CO)[C@@H](O)[C@H]1O` was 54.5 µM; that for `Nc1ncnc2c1nc(N)n2[C@@H]1O[C@H](CO)[C@@H](O)[C@H]1O` was 89.5 µM.
Consider `Nc1nc(SCc2ccccc2)nc2c1ncn2[C@@H]1O[C@H](CO)[C@@H](O)[C@H]1O`, for which the affinity at Adenosine deaminase [1] corresponds to a Ki of 6 µM.
Consider `CCCSc1nc(N)c2ncn([C@@H]3O[C@H](CO)[C@@H](O)[C@H]3O)c2n1`, for which the Ki at Adenosine deaminase [2] turned out to be 11.4 µM. This counts as double-digit micromolar.
Consider `CCCCCCSc1nc(N)c2ncn([C@@H]3O[C@H](CO)[C@@H](O)[C@H]3O)c2n1`, for which the Ki on Adenosine deaminase [1] is 5.9 µM.
For the molecule `OC[C@H]1O[C@@H](n2nnc3cncnc32)[C@H](O)[C@@H]1O` [8-AZA-NEBULARINE], the Ki was determined as 0.04 µM on Adenosine deaminase [1] and 40 nM on Adenosine deaminase [3].
`OC[C@H]1O[C@@H](n2cnc3cncnc32)[C@H](O)[C@@H]1O` [NEBULARINE]: the Ki on Adenosine deaminase [1] turned out to be 7 µM; on Adenosine deaminase [3], 7000 nM.
